Experiments:
[1] = FRET spectroscopy probe dilution assay, membrane intercalation; format: binding; details: NBD-PE/rhodamine-PE, peptide 0.2-0.8 μM, 20 mM HEPES 150 mM NaCl pH 7.4, 37°C
Description: FRET spectroscopy served as a sensitive tool to detect lipid dependence of the membrane interaction of antimicrobial peptides. For this, all peptides were added to liposomes consisting of zwitterionic PC alone, of a mixture of PC and of negatively charged PS, as well as of pure PS (Figure 1). All lipid vesicles were doped with donor and acceptor dyes, peptides were added, and the emission intensities of both dyes were monitored over time. An increase of the fluorescence intensity of the donor (IDonor) and a simultaneous decrease of the fluorescence intensity of the acceptor dye (IAcceptor), i.e. a reduced FRET efficacy, indicated an increase in the overall mean distance between labeled phospholipids, and corresponded to an insertion of peptides into the lipid bilayer. For clarity, the IDonor/IAcceptor ratio is shown (Figure 1).
Figure 1 FRET spectroscopy. (A-C) Binding to and insertion of peptide C7A-D21K into phospholipid membranes (A) C7A-D21K was added at time point 50 s to liposomes (10 μM) consisting of pure PC, (B) a 90:10 molar mixture of PC:PS, and (C) of pure PS, each doubly doped with the fluorescently labeled FRET pair NBD-PE (donor) and rhodamine-PE (acceptor). Intercalation was monitored by measuring donor and acceptor fluorescence emission intensities. For better visualization only the quotient (IDonor/IAcceptor) is shown. Addition of the peptide solvent alone had no effect (dotted grey line). Peptide concentrations used: 0.2 μM (dotted black line, only in C), 0.4 μM (solid grey line, only in C), and 0.8 μM (solid black line). (D-F) Binding to and insertion of peptides at different concentrations into phospholipid membranes. (A) Peptides were added to liposomes consisting of pure PC, (B) a 90:10 molar mixture of PC:PS, and (C) of pure PS, each doubly doped with the fluorescently labeled phospholipid FRET pair NBD-PE (donor) and rhodamine-PE (acceptor). Intercalation was monitored by measuring donor and acceptor fluorescence intensities. The relative increase of the IDonor/IAcceptor ratio 250 s after peptide addition is shown (Increase of IDonor/IAcceptor (%) = (IDonor/IAcceptor (peptide) - IDonor/IAcceptor (control))*100). Peptide concentrations used: 0.2 μM (open bars), 0.4 μM (grey bars), and 0.8 μM (black bars).
Intercalation of peptides into liposome membranes was determined by FRET spectroscopy applied as a probe dilution assay. Liposomes were prepared by dissolving appropriate lipid mixtures (pure PC, a 90:10 molar mixture of PC:PS, as well as pure PS, each doped with 1% of the donor dye NBD-PE and 1% of the acceptor dye rhodamine-PE) in chloroform and drying them under a gentle stream of nitrogen. The resulting lipid film was dispersed in 20 mM HEPES, 150 mM NaCl, pH 7.4, sonicated for 30 min and subjected to 3-4 temperature cycles from 4 to 60°C with an incubation period of 30 min at each step. Lipid dispersions were stored at 4°C overnight before use. For the assay, donor fluorescence (NBD) was excited at 470 nm, and donor (NBD, ID at 531 nm) as well as acceptor (rhodamine, IA at 593 nm) emission intensities were monitored over time. An increase of the ratio of the donor fluorescence intensity to that of the acceptor fluorescence intensity (IDonor/I^Acceptor) was interpreted as a membrane intercalation event. This ratio depends on the Förster efficiency, therefore a rising value means that the mean distance separation of donor and acceptor dyes is raising. The assay was performed at 37°C.

HROC24 xenografts = assay: HROC24 xenograft, repetitive local peptide injection; format: in vivo, NMRI Foxn1nu mice; details: for Tumor growth inhibition in words / Tumors macroscopically breaking up / ulceration / Tumor size, x-fold increase vs. day 0 (Vt/V0): 1 mg/kg bw local injection every third day, 9 injections, n=5; for Tumor cell apoptosis, M30 CytoDeath staining (cytokeratin 18 cleavage): immunofluorescence of cryopreserved tumor sections; for Tumor size, x-fold increase vs. day 0 (Vt/V0): PBS control: 10.3-fold
Description: Figure 7 In vivo growth kinetics and tumor cell apoptosis of HROC24 tumors in NMRI Foxn1mice with or without local treatment (A) Therapy was performed by repetitive local application of HDPs C7A or C7A-D21K (1 mg/kg bw) every third day (a total of 9 injections) (n=5 per group). Tumor-carrying control animals received either equivalent volumes of peptide NK11 or saline (n=5 per group). Tumor volumes are given as x-fold increase vs. day 0 (Vt/V0) (start of treatment) ± SD. *p<0.05 vs. PBS. (B) Representative immunofluorescence staining of apoptotic cells within HROC24 tumors. Cryopreserved tumor sections were stained with anti-M30 CytoDeath antibody, followed by anti-mouse IgG FITC antibody and nuclear DAPI as described in material and methods.
Experiments were performed on female 8–10-week old NMRI Foxn1^nu mice (Charles River, Sulzfeld, Germany) weighting 18-20 g. All animals were fed standard laboratory chow and given free access to water. Trials were performed in accordance with the German legislation on protection of animals and the Guide for the Care and Use of Laboratory Animals (Institute of Laboratory Animal Resources, National Research Council; NIH Guide, vol.25, no.28, 1996). NMRI Foxn1^nu mice were challenged with 5 × 10^6 HROC24 cells. Mice with established subcutaneous (s.c.) tumors received repetitive local injections of peptide C7A or C7A-D21K (1mg/kg bw, dissolved in 50 μl) every third day (a total of 9 injections) (n=5 per group). As control, tumor-carrying mice either received NK11 (1mg/kg bw, dissolved in 50 μl) or saline (50μl volume, n=5 per group). Tumor growth was controlled three times a week at time point of HDP injection and tumor volume was estimated according to the formula: V= width² * length * 0.52.
Tumor carrying mice were sacrificed at day 28 or when they became moribund before the tumor volume reached 2.000 mm³. At the end of each experiment, tumors, blood and spleens were collected from the animals of all groups for further analysis.
To study apoptotic cell death in vivo, 4 μm sections of HDP-treated and control tumors were mounted on poly-L-lysine-coated-slides. Following fixation in ice-cold methanol and blocking with 2% BSA (1h), cells were incubated with mouse anti-M30 CytoDeath antibody according to the manufacturer's instructions (Roche, Mannheim, Germany). A FITC-labeled anti-mouse IgG antibody was used as secondary antibody (Dako Envision Link, Hamburg, Germany). Cell nuclei were stained with DAPI and slides were embedded in mounting medium (Dako). Apoptotic cells were detected using a fluorescence microscope (Olympus, Münster, Germany).

Sequence	Membrane intercalation (increase of IDonor/IAcceptor) ([1]; PC:PS 90:10 liposomes 10 μM)	Membrane intercalation (increase of IDonor/IAcceptor) ([1]; pure PS liposomes 10 μM)	Tumor growth inhibition in words (HROC24 xenografts)	Tumors macroscopically breaking up / ulceration (HROC24 xenografts)	Tumor cell apoptosis, M30 CytoDeath staining (cytokeratin 18 cleavage) (HROC24 xenografts)	Tumor size, x-fold increase vs. day 0 (Vt/V0) (HROC24 xenografts) [fold]	Membrane intercalation (increase of IDonor/IAcceptor) ([1]; pure PC liposomes 10 μM)
KILRGVAKKIMRTFLRRISKDILTGKK [Peptide C7A, NK-2 derivative, Cys7 replaced with Ala]	slightly impaired	pronounced	most effectiveness	4/5	most strongly induced	–	–
KILRGVAKKIMRTFLRRISKKILTGKK [Peptide C7A-D21K, C7A with Asp21 substituted by Lys]	slightly impaired	pronounced	strong growth retardation	no ulceration was observed	most strongly induced	3.4	–
KISKRILTGKK [NK11, non-toxic control peptide based on NK-2, reference compound]	negligible	visible	induced tumor growth retardation as well	–	elevated cytokeratin 18 cleavage	4	negligible

Reference: publication PMC4147338, “Host defense peptides for treatment of colorectal carcinoma – a comparative in vitro and in vivo analysis” (Oncotarget, 2014)
